These molecules were tested against T1, Cysteinyl leukotriene receptor 1 (Cavia porcellus, UniProt Q2NNR5) (assay: Inhibition of [3H]LTD4 binding to guinea-pig lung membrane).
T1 sequence (Q2NNR5 whole entry): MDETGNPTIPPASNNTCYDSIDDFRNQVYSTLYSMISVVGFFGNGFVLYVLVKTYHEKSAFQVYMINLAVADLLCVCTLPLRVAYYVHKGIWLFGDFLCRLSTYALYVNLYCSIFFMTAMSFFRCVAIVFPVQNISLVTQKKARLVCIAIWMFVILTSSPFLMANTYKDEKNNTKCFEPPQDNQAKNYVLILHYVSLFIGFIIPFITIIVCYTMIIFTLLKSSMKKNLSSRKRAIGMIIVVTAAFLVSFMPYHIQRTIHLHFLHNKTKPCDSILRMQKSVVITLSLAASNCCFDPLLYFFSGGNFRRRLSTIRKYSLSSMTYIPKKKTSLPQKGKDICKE
Assay type: tissue-based
Molecule C[C@H](CCC[C@H](SCCC(=O)N(C)C)c1cccc(/C=C/c2ccc3ccc(Cl)cc3n2)c1)C(=O)O has an IC50 of 2.3 nM.
CC(C)(O)CCCSC(CCC(C)(C)CC(=O)O)c1cccc(/C=C/c2ccc3ccc(Cl)cc3n2)c1 (stereo not drawn) showed an IC50 of 1.3 nM.
C[C@H](CCC[C@H](SCCC(C)(C)O)c1cccc(/C=C/c2ccc3ccc(Cl)cc3n2)c1)C(=O)O gave an IC50 of 2 nM.
CC(C)(CC[C@H](SCc1ccccn1)c1cccc(CCc2ccc3ccc(Cl)cc3n2)c1)CC(=O)O showed an IC50 of 1.6 nM.
Molecule CC(C)(CC[C@@H](SCc1ccccc1C(C)(C)O)c1cccc(/C=C/c2ccc3ccc(Cl)cc3n2)c1)CC(=O)O has an IC50 of 1 nM.
C[C@H](CCC[C@@H](SCCC(C)(C)O)c1cccc(/C=C/c2ccc3ccc(Cl)cc3n2)c1)C(=O)O showed an IC50 of 0.8 nM.
CC(C)(CC[C@H](SCc1ccccc1C(C)(C)O)c1cccc(/C=C/c2ccc3ccc(Cl)cc3n2)c1)CC(=O)O gave an IC50 of 0.6 nM.
C[C@H](CCC[C@@H](SCCC(=O)N(C)C)c1cccc(/C=C/c2ccc3ccc(Cl)cc3n2)c1)C(=O)O showed an IC50 of 0.9 nM.
CC(C)(CC[C@@H](SCc1ccccc1C(C)(C)O)c1cccc(CCc2ccc3ccc(Cl)cc3n2)c1)CC(=O)O gave an IC50 of 1.9 nM.
In the case of CC(C)(O)c1ccccc1CS[C@@H](CCC1(CC(=O)O)CC1)c1cccc(CCc2ccc3ccc(Cl)cc3n2)c1, the IC50 is reported as 1.4 nM.
With CC(C)(CC[C@H](SCCc1ccccn1)c1cccc(CCc2ccc3ccc(Cl)cc3n2)c1)CC(=O)O the IC50 was 2.2 nM.
Work on CC(C)(CC[C@H](SCc1ccccc1C(C)(C)O)c1cccc(CCc2ccc3ccc(Cl)cc3n2)c1)CC(=O)O yielded an IC50 of 0.6 nM.
Work on CC(CC[C@H](SCCCC(C)(C)O)c1cccc(/C=C/c2ccc3ccc(Cl)cc3n2)c1)CC(=O)O (stereo partly drawn) yielded an IC50 of 0.5 nM.
